Format in all cases: cell-based
In assay [1] the test system is V84 penicillin resistant Staphylococcus. Nature of the assay: Gradient plate in vitro antibiotic activity (MIC), V84 penicillin resistant Staphylococcus. The conditions noted are these: read-out: Minimum Inhibitory Concentration. The source says: (§1) The antibiotic activity of the cephalosporin compounds of this invention is illustrated by the data provided in the following Table of representative compounds. The values in the Table are the minimum inhibitory concentrations (MIC) for the test compounds against the indicated microorganisms. The MIC values were obtained using the gradient plate in vitro method for determining antibiotic activity.
(§2) 1. Test organisms V41, V32, and V84 are penicillin

The subject of the next assay is Escherichia coli. Nature of the assay: Gradient plate in vitro antibiotic activity (MIC), Escherichia coli. The settings on record: read-out: Minimum Inhibitory Concentration. The source says:
(§3) The values in the Table are the minimum inhibitory concentrations (MIC) for the test compounds against the indicated microorganisms. The MIC values were obtained using the gradient plate in vitro method for determining antibiotic activity.

In assay [2] the test system is X400 methicillin resistant Staphylococcus. Put plainly: Gradient plate in vitro antibiotic activity (MIC), X400 methicillin resistant Staphylococcus. The settings on record: read-out: Minimum Inhibitory Concentration.
From the text: as §1
resistant Staphylococcus. X-400 is a methicillin
resistant Staphylococcus.

The subject of a further assay is Salmonella heidelberg. Nature of the assay: Gradient plate in vitro antibiotic activity (MIC), Salmonella heidelberg. The settings on record: Salmonella enterica, read-out: Minimum Inhibitory Concentration.
From the text: as §3

For a further assay, the system named is Serratia marcescens. Put plainly: Gradient plate in vitro antibiotic activity (MIC), Serratia marcescens. The settings on record: read-out: Minimum Inhibitory Concentration.
From the text: as §3

The subject of a further assay is Klebsiella pneumoniae. Put plainly: Gradient plate in vitro antibiotic activity (MIC), Klebsiella pneumoniae. The conditions noted are these: read-out: Minimum Inhibitory Concentration.
From the text: as §3

A further assay deals with Pseudomonas aeruginosa. Put plainly: Gradient plate in vitro antibiotic activity (MIC), Pseudomonas aeruginosa. The conditions noted are these: read-out: Minimum Inhibitory Concentration.
From the text: as §3

For assay [3], the system named is V32 penicillin resistant Staphylococcus. Nature of the assay: Gradient plate in vitro antibiotic activity (MIC), V32 penicillin resistant Staphylococcus. The settings on record: read-out: Minimum Inhibitory Concentration.
From the text: as §1, §2

Another assay relates to Shigella sp. Nature of the assay: Gradient plate in vitro antibiotic activity (MIC), Shigella sp. The conditions noted are these: read-out: Minimum Inhibitory Concentration.
From the text: as §1

The subject of assay [4] is V41 penicillin resistant Staphylococcus. Nature of the assay: Gradient plate in vitro antibiotic activity (MIC), V41 penicillin resistant Staphylococcus. The settings on record: read-out: Minimum Inhibitory Concentration.
From the text: as §1, §2

The next assay concerns Aerobacter aerogenes. Put plainly: Gradient plate in vitro antibiotic activity (MIC), Aerobacter aerogenes. The settings on record: Klebsiella aerogenes, read-out: Minimum Inhibitory Concentration.
From the text: as §1

Each structure is given as a SMILES string. Values after ≈ are worked out from the molar mass of the structure shown. Bounds are passed on as bounds.

The source of these data is US4048161A, “7-[α-(Benzimidazol-2-ylcarbonylamino)-arylacetamido]ephalosporins” (Eli Lilly and Company, priority 1976, dated 1977).

Take `Cn1nnnc1SCC1=C(C(=O)O)N2C(=O)C(NC(=O)C(NC(=O)c3nc4ccccc4[nH]3)c3ccccc3)C2SC1` (centres unmarked) [B]: the MIC was 0.7 µg/mL (≈ 1.16 µM) in [1]; 18.5 µg/mL (≈ 30.5 µM) in the assay on Escherichia coli; over 20 µg/mL in assay [2]; 6.5 µg/mL (≈ 10.7 µM) in the assay on Salmonella heidelberg; 21.5 µg/mL (≈ 35.5 µM) in the assay on Serratia marcescens; 5 µg/mL (≈ 8.26 µM) with Klebsiella pneumoniae. Further, the MIC came out at 22 µg/mL (≈ 36.3 µM) with Pseudomonas aeruginosa; 7 µg/mL (≈ 11.6 µM) in assay [3]; 5 µg/mL (≈ 8.26 µM) in the assay with Shigella sp.; 5 µg/mL (≈ 8.26 µM) in assay [4]; 8.5 µg/mL (≈ 14 µM) with Aerobacter aerogenes.

With `CC(=O)OCC1=C(C(=O)O)N2C(=O)C(NC(=O)C(NC(=O)c3nc4ccccc4[nH]3)c3ccccc3)C2SC1` (centres unmarked) [A], the MIC in [1] was 0.6 µg/mL (≈ 1.09 µM); with Escherichia coli, 26.5 µg/mL (≈ 48.2 µM); in assay [2] it was over 20 µg/mL; with Salmonella heidelberg, 22 µg/mL (≈ 40 µM); in the assay on Serratia marcescens, 100 µg/mL (≈ 182 µM); in the assay with Klebsiella pneumoniae, 18.5 µg/mL (≈ 33.7 µM). Further, the MIC with Pseudomonas aeruginosa was 25 µg/mL (≈ 45.5 µM); in assay [3] it was 5 µg/mL (≈ 9.1 µM); with Shigella sp., 15 µg/mL (≈ 27.3 µM); in [4] it was 4 µg/mL (≈ 7.28 µM); in the assay with Aerobacter aerogenes, 18.3 µg/mL (≈ 33.3 µM).

Turning to `Cn1c(SCC2=C(C(=O)O)N3C(=O)C(NC(=O)C(NC(=O)c4nc5ccccc5[nH]4)c4ccc(O)cc4)C3SC2)nnc(O)c1=O` (centres unmarked) [G], the MIC in assay [1] was 0.8 µg/mL (≈ 1.2 µM); with Escherichia coli, 11 µg/mL (≈ 16.5 µM); in [2] it was over 200 µg/mL; in the assay on Salmonella heidelberg it was 8.5 µg/mL (≈ 12.8 µM); with Serratia marcescens it was 41 µg/mL (≈ 61.7 µM); in the assay with Klebsiella pneumoniae, 1 µg/mL (≈ 1.5 µM). The MIC in the assay on Pseudomonas aeruginosa was determined as 60 µg/mL (≈ 90.3 µM); in assay [3] it was 1.8 µg/mL (≈ 2.71 µM); with Shigella sp., 6.7 µg/mL (≈ 10.1 µM); in assay [4], 0.8 µg/mL (≈ 1.2 µM); in the assay on Aerobacter aerogenes, 19.2 µg/mL (≈ 28.9 µM).

In the case of `Cc1nnc(SCC2=C(C(=O)O)N3C(=O)C(NC(=O)C(NC(=O)c4nc5ccccc5[nH]4)c4ccc(O)cc4)C3SC2)s1` (centres unmarked) [E], the MIC was 1 µg/mL (≈ 1.57 µM) in [1]; 16 µg/mL (≈ 25.1 µM) in the assay with Escherichia coli; 100 µg/mL (≈ 157 µM) in [2]; 16 µg/mL (≈ 25.1 µM) in the assay with Salmonella heidelberg; 70 µg/mL (≈ 110 µM) with Serratia marcescens; 4.5 µg/mL (≈ 7.06 µM) in the assay on Klebsiella pneumoniae. The MIC stood at 18.5 µg/mL (≈ 29 µM) with Pseudomonas aeruginosa; 5 µg/mL (≈ 7.84 µM) in [3]; 10 µg/mL (≈ 15.7 µM) in the assay on Shigella sp.; 4 µg/mL (≈ 6.27 µM) in [4]; 21.5 µg/mL (≈ 33.7 µM) with Aerobacter aerogenes.

For the compound `Cn1nnnc1SCC1=C(C(=O)O)N2C(=O)C(NC(=O)C(NC(=O)c3nc4ccccc4[nH]3)c3cccs3)C2SC1` (centres unmarked) [D], the MIC worked out at 0.5 µg/mL (≈ 0.817 µM) in assay [1]; 7 µg/mL (≈ 11.4 µM) in the assay with Escherichia coli; 19.5 µg/mL (≈ 31.9 µM) in [2]; 7.5 µg/mL (≈ 12.3 µM) in the assay with Salmonella heidelberg; 14.8 µg/mL (≈ 24.2 µM) in the assay on Serratia marcescens; 0.6 µg/mL (≈ 0.981 µM) with Klebsiella pneumoniae. Moreover, the MIC came to 14.8 µg/mL (≈ 24.2 µM) in the assay with Pseudomonas aeruginosa; 0.6 µg/mL (≈ 0.981 µM) in assay [3]; 4 µg/mL (≈ 6.54 µM) with Shigella sp.; 0.6 µg/mL (≈ 0.981 µM) in assay [4]; 10 µg/mL (≈ 16.3 µM) in the assay with Aerobacter aerogenes.

Turning to `NC(=O)OCC1=C(C(=O)O)N2C(=O)C(NC(=O)C(NC(=O)c3nc4ccccc4[nH]3)c3ccc(O)cc3)C2SC1` (centres unmarked) [F], the MIC in assay [1] is 0.8 µg/mL (≈ 1.41 µM); with Escherichia coli it was 55 µg/mL (≈ 97.1 µM); in assay [2], 120 µg/mL (≈ 212 µM); with Salmonella heidelberg, 19.5 µg/mL (≈ 34.4 µM); in the assay on Serratia marcescens, over 200 µg/mL; with Klebsiella pneumoniae, 10 µg/mL (≈ 17.7 µM). Moreover, the MIC with Pseudomonas aeruginosa was found to be 19.5 µg/mL (≈ 34.4 µM); in assay [3], 0.9 µg/mL (≈ 1.59 µM); with Shigella sp., 19.5 µg/mL (≈ 34.4 µM); in [4] it was 0.9 µg/mL (≈ 1.59 µM); in the assay on Aerobacter aerogenes, 55 µg/mL (≈ 97.1 µM).

Take `Cn1nnnc1SCC1=C(C(=O)O)N2C(=O)C(NC(=O)C(NC(=O)c3nc4ccccc4[nH]3)c3ccc(O)cc3)C2SC1` (centres unmarked) [C]: the MIC stood at 0.8 µg/mL (≈ 1.29 µM) in assay [1]; 7.5 µg/mL (≈ 12.1 µM) in the assay on Escherichia coli; 60 µg/mL (≈ 96.5 µM) in assay [2]; 8 µg/mL (≈ 12.9 µM) in the assay on Salmonella heidelberg; 20.7 µg/mL (≈ 33.3 µM) in the assay with Serratia marcescens; 0.9 µg/mL (≈ 1.45 µM) with Klebsiella pneumoniae. For the same compound, the MIC with Pseudomonas aeruginosa is 10.5 µg/mL (≈ 16.9 µM); in [3], 0.9 µg/mL (≈ 1.45 µM); in the assay with Shigella sp., 5.5 µg/mL (≈ 8.85 µM); in assay [4], 0.9 µg/mL (≈ 1.45 µM); in the assay with Aerobacter aerogenes, 13 µg/mL (≈ 20.9 µM).
